Test results taken from patent publication US20190233522A1, “NEW DOSAGE REGIMENS FOR ANTIBODY DRUG CONJUGATES BASED ON ANTI-AXL ANTIBODIES” (GENMAB A/S, priority 2016, published 2019).

Experiments:
ES0195 tumors = experiment: Esophageal cancer PDX model ES0195; format: in vivo, BALB/c nude mice
Protocol: Tumor fragments from donor mice bearing patient-derived esophageal xenografts (ES0195) were used for inoculation into BALB/c nude mice. Each mouse was inoculated subcutaneously at the right flank with one tumor fragment (2-3 mm in diameter) and tumors were allowed to grow until the tumor volume was about 150 mm^3. […] The antibodies and ADCs were dosed intravenously (i.v.) at 4 mg/kg at day of randomization (day 0) and day 7. Paclitaxel was dosed intra-peritoneally (i.p.) at 20 mg/kg at day 0, 7, and 14. Tumor volumes (mm^3) were monitored twice weekly and were calculated from caliper (PLEXX) measurements as: 0.52×(length)×(width)^2.

LXFA 677 = experiment: NSCLC PDX model LXFA 677; format: in vivo, NMRI nu/nu mice
Protocol: (§1) Inoculation of tumor fragments into 4-6 weeks old male NMRI nu/nu mice and randomization was performed as described above.
(§2) Erlotinib was given daily for 14 days at a dose of 50 mg/kg. Erlotinib alone, IgG1-b12-vcMMAE and IgG1-b12 were used as controls.

CV1664 = experiment: Cervical cancer PDX model CV1664; format: in vivo, BALB/c nude mice
Protocol: Inoculation of tumor fragments into BALB/c nude mice and randomization was performed as described in Example 23.

PAXF1657 tumors = experiment: PAXF1657 pancreas cancer PDX model; format: in vivo, NMRI nu/nu mice
Protocol: Human pancreas tumor tissue was subcutaneously implanted in the left flank of 5-7 weeks old female NMRI nu/nu mice. […] At day of randomization (day 0), the 3 ADCs were dosed intravenously (i.v.) at either 4 mg/kg or 2 mg/kg, and the control group received a single dose of IgG1-b12 (4 mg/kg). Tumor volumes (mm^3) were monitored twice weekly and were calculated from caliper (PLEXX) measurements as: 0.52×(length)×(width)^2.

LU1868 = experiment: Erlotinib-resistant NSCLC PDX model LU1868; format: in vivo, BALB/c nude mice
Protocol: (§3) Inoculation of tumor fragments into BALB/c nude mice and randomization was performed as described above.
Erlotinib was given daily for 14 days at a dose of 50 mg/kg. Treatments with erlotinib alone, IgG1-b12-vcMMAE or IgG1-b12 were included as controls (FIG. 27).

LCLC-103H cells = experiment: Cytotoxicity assay (CellTiter-Glo) in LCLC-103H cells; format: cell-based, human; conditions: 5 days incubation
Protocol: (§4) LCLC-103H cells (human large cell lung cancer) and A431 cells (DMSZ, Braunschweig, Germany) were cultured in RPMI 1640 with L-Glutamine (Cambrex; cat.no. BE12-115F) supplemented with 10% (vol/vol) heat inactivated Cosmic Calf Serum (Perbio; cat.no. SH30087.03), 2 mM L-glutamine (Cambrex; cat.no. US17-905C), 50 IU/mL penicillin, and 50 µg/mL streptomycin (Cambrex; cat.no. DE17-603E). MDA-MB231 cells were cultured in DMEM with high glucose and HEPES (Lonza #BE12-709F), Donor Bovine Serum with Iron (Life Technologies #10371-029), 2 mM L-glutamine (Lonza #BE17 -605E), 1 mM Sodium Pyruvate (Lonza #BE13-115E), and MEM Non-Essential Amino Acids Solution (Life Technologies #11140). The cell lines were maintained at 37° C. in a 5% (vol/vol) CO2 humidified incubator. LCLC-103H, A431 and MDA-MB231 cells were cultured to near confluency, after which cells were trypsinized, resuspended in culture medium and passed through a cell strainer (BD Falcon, cat.no. 352340) to obtain a single cell suspension. […]
(§5) Subsequently, 180 μL per well was transferred to white 96-well Optiplate™ plates (PerkinElmer, Waltham, Mass.; cat.no. 6005299), which were incubated for 30 min at room temperature. Finally, luminescence was measured on an EnVision multiplate reader (Envision, Perkin Elmer).

LU0858 = experiment: Erlotinib-resistant NSCLC PDX model LU0858; format: in vivo, BALB/c nude mice
Protocol: as §3, §2

LU2511 tumors = experiment: Erlotinib-resistant NSCLC PDX model LU2511; format: in vivo, BALB/c nude mice
Protocol: Tumor fragments from donor mice bearing patient-derived NSCLC xenografts (LU2511) were used for inoculation into BALB/c nude mice. Each mouse was inoculated subcutaneously at the right flank with one tumor fragment (2-3 mm in diameter) and tumors were allowed to grow until the tumor volume was about 200 mm^3. […] The antibodies and ADCs were dosed intravenously (i.v.) at 4 mg/kg on the day of randomization (day 0) and on day 7. Erlotinib was dosed orally (per os) at 50 mg/kg daily for 2 weeks. Tumor volumes (mm^3) were monitored twice weekly and were calculated from caliper (PLEXX) measurements as: 0.5×(length)×(width)^2.

[1] = test system: LCLC-103H xenograft tumors; experiment: Therapeutic treatment of SC LCLC-103H tumor xenografts (Example 3); format: in vivo, SCID mice
Protocol: The in vivo efficacy of MMAE-conjugated anti-AXL antibodies was determined in established subcutaneous (SC) LCLC-103H xenograft tumors in SCID mice. 5×10^6 LCLC-103H (large cell lung carcinoma) tumor cells (obtained from Leibniz-Institut DSMZ-Deutsche Sammlung von Mikroorganismen and Zellkulturen GmbH (DSMZ)) in 200 μL PBS were injected subcutaneously in the right flank of female SCID mice. Starting 14-21 days after tumor cell inoculation, when the average tumor size was >100-200 mm^3 and distinct tumor growth was observed, a single injection with 1 mg/kg (20 μg/mouse) IgG1-AXL-vcMMAE antibodies or control (unconjugated IgG1-b12) was given intraperitoneally (100 μL/mouse). Tumor volume was determined at least two times per week. Tumor volumes (mm^3) were calculated from caliper (PLEXX) measurements as: 0.52×(length)×(width)^2.

A431 cells = experiment: Cytotoxicity assay (CellTiter-Glo) in A431 cells; format: cell-based; conditions: A431 (n = 3), 5 days incubation
Protocol: as §4, §5

LXFA 526 = experiment: Erlotinib-resistant NSCLC PDX model LXFA 526; format: in vivo, NMRI nu/nu mice
Protocol: as §1
Erlotinib was given daily for 14 days at a dose of 50 mg/kg. Erlotinib alone, IgG1-b12-vcMMAE and IgG1-b12 were used as control.

LXFA 677_3 = experiment: NSCLC PDX model LXFA 677_3 (acquired resistance to erlotinib); format: in vivo, NMRI nu/nu mice
Protocol: as §1, §2

A431 tumors = experiment: A431 xenograft model (high Gas6); format: in vivo; conditions: 3 mg/kg i.p., SCID mice
Protocol: (§6) Tumor induction was performed by subcutaneous injection of 5×10^6 A431 or LCLC-103H tumor cells (both obtained from Leibniz-Institut—Deutsche Sammlung von Mikroorganismen and Zellkulturen GmbH (DSMZ)) in 200 μL PBS in the right flank of female SCID mice. Treatment was started 14-21 days after tumor cell inoculation, when the average tumor size was >100-200 mm^3 and distinct tumor growth was observed. Mice received a single injection or a total of 4 biweekly intraperitoneal injections with IgG1-AXL-vcMMAE ADCs or control antibody (unconjugated IgG1-b12), as indicated. Tumor volume was determined at least two times per week. Tumor volumes (mm^3) were calculated from caliper (PLEXX) measurements as: 0.52×(length)×(width)^2.

MDA-MB231 cells = experiment: Cytotoxicity assay (CellTiter-Glo) in MDA-MB231 cells; format: cell-based; conditions: MDA-MB231 (n = 2), 5 days incubation
Protocol: as §4, §5

LCLC-103H tumors = experiment: LCLC-103H xenograft model (low Gas6, Example 5); format: in vivo; conditions: 1 mg/kg i.p., SCID mice
Protocol: as §6

[2] = 2 doses of 4 mg/kg on days 55 and 62

For “IgG1-AXL-107-vcMMAE: anti-AXL antibody 107 (VH SEQ ID No 1, VL SEQ ID No 2) conjugated to MMAE via vc linker”, the “anti-tumor activity on ES0195 tumors” value (ES0195 tumors; 4 mg/kg i.v. day 0 and day 7) was “induced tumor regression”, the “effect on tumor growth, LXFA 677” value (LXFA 677; 2 mg/kg day 0 and 7) was “induced tumor growth inhibition” and the “effect on tumor growth, LXFA 677” value (LXFA 677; 4 mg/kg day 0 and 7) was “induced partial tumor regression”. For the same compound, the “retreatment of three mice with tumor regrowth after paclitaxel, CV1664” value (CV1664; [2]) was “Two of the three mice showed complete tumor regression”, the “retreatment of two mice with tumor regrowth after initial 4 mg/kg ADC, CV1664” value (CV1664; [2]) was “partial tumor regression in both mice” and the “second retreatment of the one mouse with regrowth after paclitaxel and ADC, CV1664” value (CV1664; 2 doses of 4 mg/kg on days 98 and 105) was “partial tumor regression”. The “second retreatment of the same two mice, CV1664” value (CV1664; 2 doses of 4 mg/kg on days 105 and 112) was “partial tumor regression in both animals”, the “effect on tumor growth, CV1664” value (CV1664; both dose levels (2 or 4 mg/kg), day 0 and 7, lasted at least until day 49) was “induced strong tumor regression” and the “growth of PAXF1657 tumors compared to the control group” value (PAXF1657 tumors; 2 mg/kg i.v., day 0) was “significantly reduced the growth”. For the same compound, the “anti-tumor activity on PAXF1657 tumors” value (PAXF1657 tumors; 4 mg/kg i.v., day 0) was “induced tumor regression”, the “average tumor size versus isotype control IgG1-b12” value (PAXF1657 tumors; day 14, 2 mg/kg or 4 mg/kg, p<0.001 Tukey's multiple comparison test) was “significantly smaller” and the “effect on tumor growth, LU1868” value (LU1868; 2 mg/kg and 4 mg/kg, day 0 and 7, alone) was “induced tumor growth inhibition”. The EC50 (LCLC-103H cells) was 0.022 µg/mL, the “effect on tumor growth, LU0858” value (LU0858; 2 mg/kg day 0 and 7, alone) was “no effect on tumor growth” and the “effect on tumor growth, LU0858” value (LU0858; 4 mg/kg day 0 and 7, alone, compared to IgG1-b12-vcMMAE control) was “induced tumor growth inhibition”. For the same compound, the “anti-tumor activity on LU2511 tumors” value (LU2511 tumors; 4 mg/kg i.v. day 0 and day 7) was “induced tumor growth inhibition”, the complete tumor reduction ([1]; 1 mg/kg single i.p.) was “in some mice within these groups to complete tumor reduction” and the “tumor volume versus control IgG1-b12” value ([1]; day 30, One Way ANOVA (Dunnett's), 1 mg/kg single i.p.) was “highly significant difference”. For the same compound, the “anti-tumor activity in established SC LCLC-103H tumors” value ([1]; single i.p. injection 1 mg/kg, SCID mice) was “induced tumor regression”, the “EC50 Mean” value (A431 cells) was 0.154 µg/mL and the “effect on tumor growth, LXFA 526” value (LXFA 526; 2 mg/kg day 0 and 7) was “induced tumor growth inhibition”. For the same compound, the “effect on tumor growth, LXFA 526” value (LXFA 526; 4 mg/kg day 0 and 7) was “complete tumor regression in all mice at least until day 76”, the “effect on tumor growth, LXFA 677_3” value (LXFA 677_3; both dose levels (2 and 4 mg/kg), day 0 and 7, lasted at least until day 41) was “induced complete tumor regression” and the “anti-tumor activity on A431 tumors” value (A431 tumors) was “induced growth inhibition”. For the same compound, the “EC50 Mean” value (MDA-MB231 cells) was 0.037 µg/mL and the “anti-tumor activity on LCLC-103H tumors” value (LCLC-103H tumors) was “induced regression”.
With IgG1-AXL-107 the “effect on tumor growth compared to IgG1-b12 control group, CV1664” value (CV1664; 4 mg/kg day 0 and 7) was “only induced minor inhibition of tumor growth”.
With `CC(=O)O[C@H]1C(=O)[C@@]2(C)[C@H]([C@H](OC(=O)c3ccccc3)[C@]3(O)C[C@H](OC(=O)[C@H](O)[C@@H](NC(=O)c4ccccc4)c4ccccc4)C(C)=C1C3(C)C)[C@]1(OC(C)=O)CO[C@@H]1C[C@@H]2O` [paclitaxel, reference compound] the “anti-tumor activity on ES0195 tumors” value (ES0195 tumors; 20 mg/kg i.p. day 0, 7 and 14) was “tumor growth inhibition” and the “effect on tumor growth, CV1664” value (CV1664; 20 mg/kg intraperitoneally day 0 and 7) was “induced partial tumor regression”.
In the case of `C#Cc1cccc(Nc2ncnc3cc(OCCOC)c(OCCOC)cc23)c1` [erlotinib, reference compound], the “effect on tumor growth, LXFA 677” value (LXFA 677; 50 mg/kg daily for 14 days) is reported as “induced partial tumor regression”, the “effect on tumor growth, LU1868” value (LU1868; 50 mg/kg daily for 14 days) is reported as “no effect on tumor growth” and the “effect on tumor growth, LU0858” value (LU0858; 50 mg/kg daily for 14 days) is reported as “no effect on tumor growth”. For the same compound, the “anti-tumor activity on LU2511 tumors” value (LU2511 tumors; 50 mg/kg per os daily for 2 weeks) was “did not induce anti-tumor activity”, the “effect on tumor growth, LXFA 526” value (LXFA 526; 50 mg/kg daily for 14 days) was “no effect on tumor growth” and the “effect on tumor growth, LXFA 677_3” value (LXFA 677_3; 50 mg/kg daily for 14 days) was “no effect on tumor growth”.
